The values that follow come from US20090209587A1, “REPAGLINIDE FORMULATIONS” (priority 2008, published 2009).

Some results are limits rather than exact numbers.

Data set [1] can be described thus: Bulk/tapped density (USP Test 616), compressibility index and particle size distribution of repaglinide. The data set is classed as physicochemical. From the text: The percentages of particles with different sizes that exist in a total powder is the particle size distribution. It is represented in certain ways. Particle size is the maximum dimension of a particle, frequently expressed in μm. Particle size distributions can be expressed in terms of, D10, D50, D90 and D[4,3]. The D10, D50 and D90 represent the 10th, median or the 50th percentile, and the 90th percentile of the particle size distribution, respectively, as measured by volume. That is, the D10, D50, D90 are values of the distribution such that 10%, 50%, or 90% of the particles have a volume of this value or less, or is the percentage of particles smaller than that size. D50 is also known as median diameter of particle. It is one of the important parameters representing characteristics of particles of powders. For a sample, if D50=5 μm, it means that 50% of the particles are smaller than 5 μm. Similarly if D10=5 μm, 10% of the particles are less than or equal to 5 μm, and if D90=5 μm, 90% of the particles have sizes less than or equal to 5 μm. D[4,3] represents the volume moment mean of the particles, or the volume weighted particle size. Densities were determined according to USP Test 616 “Bulk Density and Tapped Density,” and compressibility index is percentage change in volume induced by tapping a sample of fixed mass.

The conditions of data set [2]: cited from earlier work.

As to `CCOc1cc(CC(=O)N[C@@H](CC(C)C)c2ccccc2N2CCCCC2)ccc1C(=O)O` [Repaglinide, S-(+)-2-Ethoxy-4-(2((3-methyl-1-(2-(1-piperidinyl)phenyl)butyl)amino)2-oxoethyl) benzoic acid], in data set [1], the “Particle size distribution D10” value was found to be 2 μm, the “Particle size distribution D50” value was <4 μm and the “Particle size distribution D90” value is reported as <7 μm. Also, in data set [1] (USP Test 616), the Bulk density was 0.176 g/mL and the Tapped density turned out to be 0.247 g/mL. The compound further yielded a Compressibility index in data set [1] (percentage change in volume induced by tapping) of 29.95. Further, the solubility in methanol result in data set [2] (methanol) was “freely soluble”. In addition, the “solubility in methylene chloride” value in data set [2] (methylene chloride) is “freely soluble”. In data set [2] (water), the solubility in water entry is “practically insoluble”.
